These results are taken from ChEMBL document CHEMBL3045318, “Synthesis and Antimicrobial Evaluation of Some t(3)-Alkyl and t(3),t(5)-Dimethyl-r(2),c(6)-DI-2-Furfurylpiperidin-4-one and its Derivatives” (2005).

Converted amounts (≈) assume the structure as drawn. The source made the active and inactive calls. The calls are words filed in the database; no cut-off is given here.

Test [1] has as its system Pseudomonas aeruginosa. Briefly: Antimicrobial activity against Pseudomonas aeruginosa after 24 hr by serial dilution method. Format: functional.
Test [2] has as its system Klebsiella pneumoniae. The test is described as follows: Antimicrobial activity against Klebsiella pneumoniae after 24 hr by serial dilution method. The format is functional.
The test system of a further test is Escherichia coli. Briefly: Antimicrobial activity against Escherichia coli after 24 hr by serial dilution method. Format: functional.
Test [3] deals with Enterococcus faecalis. Briefly: Antimicrobial activity against Enterococcus faecalis after 24 hr by serial dilution method. Format: functional.
In the next test the test system is Bacillus subtilis. Briefly: Antimicrobial activity against Bacillus subtilis after 24 hr by serial dilution method. The format is functional.
In test [4] the test system is Aspergillus flavus. The test is described as follows: Antimicrobial activity against Aspergillus flavus after 72 to 96 hr by serial dilution method. The format is functional.
In test [5] the test system is Aspergillus niger. The test is described as follows: Antimicrobial activity against Aspergillus niger after 72 to 96 hr by serial dilution method. Format: functional.
In test [6] the test system is Candida. Briefly: Antimicrobial activity against Candida-51 after 72 to 96 hr by serial dilution method. Format: functional.
The subject of test [7] is Candida. The test is described as follows: Antimicrobial activity against Candida 6 after 72 to 96 hr by serial dilution method. Format: functional.
In test [8] the test system is Cryptococcus neoformans. Briefly: Antimicrobial activity against Cryptococcus neoformans after 72 to 96 hr by serial dilution method. The format is functional.
The subject of test [9] is Aspergillus flavus. Briefly: Antimicrobial activity against Aspergillus flavus at 200 ug/ml after 72 to 96 hr by serial dilution method. The format is functional, organism-based.
The subject of test [10] is Aspergillus niger. Briefly: Antimicrobial activity against Aspergillus niger at 200 ug/ml after 72 to 96 hr by serial dilution method. Format: functional, organism-based.
The subject of test [11] is Klebsiella pneumoniae. Briefly: Antimicrobial activity against Klebsiella pneumoniae at 100 ug/ml after 24 hr by serial dilution method. The format is functional, organism-based.
For test [12], the system named is Cryptococcus neoformans. The test is described as follows: Antimicrobial activity against Cryptococcus neoformans at 200 ug/ml after 72 to 96 hr by serial dilution method. Format: functional, organism-based.
In test [13] the test system is Pseudomonas aeruginosa. Briefly: Antimicrobial activity against Pseudomonas aeruginosa at 100 ug/ml after 24 hr by serial dilution method. Format: functional, organism-based.
Test [14] relates to Enterococcus faecalis. Briefly: Antimicrobial activity against Enterococcus faecalis at 100 ug/ml after 24 hr by serial dilution method. The format is functional, organism-based.
The test system of test [15] is Cryptococcus neoformans. Briefly: Antimicrobial activity against Cryptococcus neoformans at 100 ug/ml after 72 to 96 hr by serial dilution method. Format: functional, organism-based.
Test [16] has as its system Aspergillus niger. Briefly: Antimicrobial activity against Aspergillus niger at 100 ug/ml after 72 to 96 hr by serial dilution method. The format is functional, organism-based.
Test [17] relates to Aspergillus flavus. Briefly: Antimicrobial activity against Aspergillus flavus at 100 ug/ml after 72 to 96 hr by serial dilution method. The format is functional, organism-based.

Usually MIC stands for the lowest concentration found to suppress growth. A lower MIC goes with inhibition by little substance. Consider `CN[C@@H]1[C@H](O[C@H]2[C@H](O[C@H]3[C@H](O)[C@@H](O)[C@H](N=C(N)N)[C@@H](O)[C@@H]3N=C(N)N)O[C@@H](C)[C@]2(O)C=O)O[C@@H](CO)[C@H](O)[C@H]1O` [STREPTOMYCIN], for which the minimal inhibitory concentration (MIC) in the test with Pseudomonas aeruginosa [1] is 25 µg/mL (≈ 43 µM); in the test on Klebsiella pneumoniae [2] it was 25 µg/mL (≈ 43 µM); against Escherichia coli, 12.5 µg/mL (≈ 21.5 µM); against Enterococcus faecalis [3] it was 50 µg/mL (≈ 86 µM); in the test on Bacillus subtilis it was 12.5 µg/mL (≈ 21.5 µM).
Regarding `CCC1/C(=N\O)CC(c2ccco2)NC1c1ccco1` (stereo unspecified), the MIC turned out to be 25 µg/mL (≈ 91.1 µM) against Aspergillus flavus [4]; 50 µg/mL (≈ 182 µM) in the test with Aspergillus niger [5]; 12.5 µg/mL (≈ 45.6 µM) in the test with Candida [6]; 25 µg/mL (≈ 91.1 µM) against Candida [7]; 12.5 µg/mL (≈ 45.6 µM) in the test on Cryptococcus neoformans [8]; 12.5 µg/mL (≈ 45.6 µM) against Pseudomonas aeruginosa [1]. In addition, the MIC against Klebsiella pneumoniae [2] is 6.25 µg/mL (≈ 22.8 µM); against Escherichia coli, 25 µg/mL (≈ 91.1 µM); against Enterococcus faecalis [3], 25 µg/mL (≈ 91.1 µM); in the test with Bacillus subtilis, 25 µg/mL (≈ 91.1 µM).
`CC1C(=NO)C(C)C(c2ccco2)NC1c1ccco1` (stereo unspecified): the MIC against Aspergillus flavus [4] came out at 12.5 µg/mL (≈ 45.6 µM); in the test with Aspergillus niger [5], 25 µg/mL (≈ 91.1 µM); with Candida [6], 12.5 µg/mL (≈ 45.6 µM); in the test on Candida [7], 12.5 µg/mL (≈ 45.6 µM); against Cryptococcus neoformans [8] it was 6.25 µg/mL (≈ 22.8 µM); in the test with Pseudomonas aeruginosa [1], 50 µg/mL (≈ 182 µM). Further, the MIC in the test on Klebsiella pneumoniae [2] came out at 6.25 µg/mL (≈ 22.8 µM); in the test on Escherichia coli, 25 µg/mL (≈ 91.1 µM); in the test with Enterococcus faecalis [3], 25 µg/mL (≈ 91.1 µM); against Bacillus subtilis, 25 µg/mL (≈ 91.1 µM).
For `CC1C(=O)CC(c2ccco2)NC1c1ccco1` (stereo unspecified), the inhibition entry in the test with Aspergillus flavus [9], with Aspergillus niger [10], with Klebsiella pneumoniae [11], in the test with Cryptococcus neoformans [12], with Pseudomonas aeruginosa [13] and in the test with Enterococcus faecalis [14] was “inactive” in each case. Besides, the inhibition result in the test with Cryptococcus neoformans [15], with Aspergillus niger [16] and in the test with Aspergillus flavus [17] was “inactive” throughout. In addition, the minimal inhibitory concentration (MIC) in the test with Candida [6] was determined as 100 µg/mL (≈ 408 µM); against Candida [7], 100 µg/mL (≈ 408 µM); with Escherichia coli, 50 µg/mL (≈ 204 µM); against Bacillus subtilis it was 50 µg/mL (≈ 204 µM).
`CC1/C(=N\O)CC(c2ccco2)NC1c1ccco1` (stereo unspecified): the MIC came to 50 µg/mL (≈ 192 µM) in the test on Aspergillus flavus [4]; 100 µg/mL (≈ 384 µM) with Aspergillus niger [5]; 12.5 µg/mL (≈ 48 µM) in the test on Candida [6]; 50 µg/mL (≈ 192 µM) in the test on Candida [7]; 25 µg/mL (≈ 96 µM) in the test on Cryptococcus neoformans [8]; 25 µg/mL (≈ 96 µM) in the test with Pseudomonas aeruginosa [1]. Further, the MIC in the test with Klebsiella pneumoniae [2] turned out to be 12.5 µg/mL (≈ 48 µM); against Escherichia coli, 12.5 µg/mL (≈ 48 µM); against Enterococcus faecalis [3], 25 µg/mL (≈ 96 µM); in the test with Bacillus subtilis it was 25 µg/mL (≈ 96 µM).
`CC1C(=O)C(C)C(c2ccco2)NC1c1ccco1` (stereo unspecified): the inhibition result with Cryptococcus neoformans [12], in the test on Pseudomonas aeruginosa [13] and in the test on Cryptococcus neoformans [15] was “inactive” each time. Moreover, the MIC in the test with Aspergillus flavus [4] came out at 50 µg/mL (≈ 193 µM); in the test with Aspergillus niger [5], 100 µg/mL (≈ 386 µM); with Candida [6], 50 µg/mL (≈ 193 µM); in the test with Candida [7], 50 µg/mL (≈ 193 µM); against Klebsiella pneumoniae [2], 100 µg/mL (≈ 386 µM); against Escherichia coli, 12.5 µg/mL (≈ 48.2 µM). Besides, the MIC against Enterococcus faecalis [3] is 50 µg/mL (≈ 193 µM); in the test on Bacillus subtilis it was 12.5 µg/mL (≈ 48.2 µM).
Consider `CCC1C(=O)CC(c2ccco2)NC1c1ccco1` (stereo unspecified), for which the inhibition entry in the test with Aspergillus niger [10], in the test on Klebsiella pneumoniae [11], in the test with Cryptococcus neoformans [12], in the test with Pseudomonas aeruginosa [13], in the test with Cryptococcus neoformans [15] and in the test on Aspergillus niger [16] was “inactive” in each case. For the same molecule, the MIC in the test on Aspergillus flavus [4] was found to be 100 µg/mL (≈ 386 µM); in the test with Candida [6], 100 µg/mL (≈ 386 µM); with Candida [7], 50 µg/mL (≈ 193 µM); in the test with Escherichia coli, 25 µg/mL (≈ 96.4 µM); against Enterococcus faecalis [3] it was 100 µg/mL (≈ 386 µM); against Bacillus subtilis, 25 µg/mL (≈ 96.4 µM).
Take `C[C@@H]1[C@H](O)[C@@H](C)/C=C/C=C/C=C/C=C/C=C/C=C/C=C/[C@H](O[C@@H]2O[C@H](C)[C@@H](O)[C@H](N)[C@@H]2O)C[C@@H]2O[C@](O)(C[C@@H](O)C[C@@H](O)[C@H](O)CC[C@@H](O)C[C@@H](O)CC(=O)O[C@H]1C)C[C@H](O)[C@H]2C(=O)O` [AMPHOTERICIN B]: the MIC was 50 µg/mL (≈ 54.1 µM) against Aspergillus flavus [4]; 50 µg/mL (≈ 54.1 µM) against Aspergillus niger [5]; 25 µg/mL (≈ 27.1 µM) against Candida [6]; 25 µg/mL (≈ 27.1 µM) against Candida [7]; 25 µg/mL (≈ 27.1 µM) in the test on Cryptococcus neoformans [8].
